Source: ChEMBL document CHEMBL1201862, “PubChem BioAssay data set” (2004)
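A five-concentration, 48-hour dose response in 96-well plates underlies each endpoint, interpolated linearly between surrounding concentrations. GI50 marks 50% less growth.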 Activity calls are given as the source filed them. Rule as the data show it: active = GI50 up to about 1.1 µM and inactive = higher.

Columns and labels:
Assay in all cases: inhibition of tumour cell growth, NCI panel, 48 h
[1] = test system: HT-29
[2] = test system: UACC-257
[3] = test system: HCC 2998
[4] = test system: CAKI-1
[5] = test system: SNB-19
[6] = test system: HCT-15
[7] = test system: SF-295
[8] = test system: Malme-3M
[9] = test system: NCI-H226
[10] = test system: MOLT-4
[11] = test system: NCI/ADR-RES
[12] = test system: PC-3
[13] = test system: ACHN
[14] = test system: HOP-62
[15] = test system: UO-31
[16] = test system: M14
[17] = test system: UACC-62
[18] = test system: NCI-H522
[19] = test system: SN12C
[20] = test system: SR

Compound: NC(=O)c1sc2nc3ccccc3n2c1N
- GI50 [1]: > 100 µM (inactive)
- GI50 [2]: > 100 µM (inactive)
- GI50 [3]: 86.7 µM (inactive)
- GI50 [4]: 92.7 µM (inactive)
- GI50 [5]: 51.8 µM (inactive)
- GI50 [6]: > 100 µM
- GI50 [7]: 23.8 µM (inactive)
- GI50 [8]: > 100 µM (inactive)
- GI50 [9]: > 100 µM (inactive)
- GI50 [10]: > 100 µM (inactive)
- GI50 [11]: > 100 µM (inactive)
- GI50 [12]: > 100 µM (inactive)
- GI50 [13]: 59.8 µM (inactive)
- GI50 [14]: 32.8 µM (inactive)
- GI50 [15]: > 100 µM (inactive)
- GI50 [16]: > 100 µM (inactive)
- GI50 [17]: 20 µM (inactive)

Compound: CSc1[nH]cnc1C(N)=S
- GI50 [1]: > 100 µM (inactive)
- GI50 [2]: > 100 µM (inactive)
- GI50 [4]: > 100 µM (inactive)
- GI50 [5]: > 100 µM (inactive)
- GI50 [7]: > 100 µM (inactive)
- GI50 [8]: > 100 µM (inactive)
- GI50 [9]: > 100 µM (inactive)
- GI50 [10]: > 100 µM (inactive)
- GI50 [18]: > 100 µM (inactive)
- GI50 [11]: > 100 µM (inactive)
- GI50 [12]: > 100 µM (inactive)
- GI50 [13]: > 100 µM (inactive)
- GI50 [14]: > 100 µM (inactive)
- GI50 [15]: > 100 µM (inactive)
- GI50 [16]: > 100 µM (inactive)
- GI50 [17]: > 100 µM (inactive)

Compound: CN1C(=O)C(=Cc2ccc(Br)cc2)C(=O)N(C)C1=O
- GI50 [2]: > 100 µM (inactive)
- GI50 [3]: > 100 µM (inactive)
- GI50 [4]: > 100 µM (inactive)
- GI50 [5]: > 100 µM (inactive)
- GI50 [6]: > 100 µM
- GI50 [7]: > 100 µM (inactive)
- GI50 [9]: > 100 µM (inactive)
- GI50 [10]: 14.1 µM (inactive)
- GI50 [11]: > 100 µM (inactive)
- GI50 [12]: > 100 µM (inactive)
- GI50 [13]: > 100 µM (inactive)
- GI50 [14]: > 100 µM (inactive)
- GI50 [15]: > 100 µM (inactive)
- GI50 [16]: > 100 µM (inactive)
- GI50 [17]: > 100 µM (inactive)

Compound: Cc1ccc(Nc2n[nH]c(=S)s2)cc1C
- GI50 [1]: 57.4 µM (inactive)
- GI50 [2]: > 100 µM (inactive)
- GI50 [3]: 70.6 µM (inactive)
- GI50 [4]: > 100 µM (inactive)
- GI50 [19]: > 100 µM (inactive)
- GI50 [5]: > 100 µM (inactive)
- GI50 [6]: 60.4 µM
- GI50 [7]: 79.6 µM (inactive)
- GI50 [8]: > 100 µM (inactive)
- GI50 [10]: 59.3 µM (inactive)
- GI50 [18]: 60.3 µM (inactive)
- GI50 [11]: > 100 µM (inactive)
- GI50 [12]: > 100 µM (inactive)
- GI50 [13]: > 100 µM (inactive)
- GI50 [14]: > 100 µM (inactive)
- GI50 [15]: > 100 µM (inactive)
- GI50 [16]: > 100 µM (inactive)
- GI50 [17]: > 100 µM (inactive)

Compound: COC1C(OC(=O)c2ccc(C)[nH]2)C(O)C(Oc2ccc3c(O)c(NC(=O)c4ccc(O)c(CC=C(C)C)c4)c(=O)oc3c2Cl)OC1(C)C (stereo not given)
- GI50 [1]: 15 µM (inactive)
- GI50 [2]: 54 µM (inactive)
- GI50 [20]: 22.5 µM (inactive)
- GI50 [3]: 18.1 µM (inactive)
- GI50 [4]: 18.7 µM (inactive)
- GI50 [19]: 20.7 µM (inactive)
- GI50 [5]: 15.7 µM (inactive)
- GI50 [6]: 18.5 µM
- GI50 [7]: 17.7 µM (inactive)
- GI50 [8]: 15.5 µM (inactive)
- GI50 [9]: 12.5 µM (inactive)
- GI50 [10]: 16.2 µM (inactive)
- GI50 [18]: 13.2 µM (inactive)
- GI50 [12]: 12.9 µM (inactive)
- GI50 [13]: 38.3 µM (inactive)
- GI50 [14]: 15.5 µM (inactive)
- GI50 [16]: 16 µM (inactive)
- GI50 [17]: 15.7 µM (inactive)

Compound: COc1ccc(-c2cc3c(nn2)-c2ccccc2C3=O)cc1
- GI50 [1]: > 10 µM (inactive)
- GI50 [2]: > 10 µM (inactive)
- GI50 [3]: > 10 µM (inactive)
- GI50 [4]: > 10 µM (inactive)
- GI50 [19]: > 10 µM (inactive)
- GI50 [5]: > 10 µM (inactive)
- GI50 [6]: > 10 µM
- GI50 [7]: > 10 µM (inactive)
- GI50 [8]: > 10 µM (inactive)
- GI50 [9]: > 10 µM (inactive)
- GI50 [18]: > 10 µM (inactive)
- GI50 [11]: > 10 µM (inactive)
- GI50 [12]: > 10 µM (inactive)
- GI50 [13]: > 10 µM (inactive)
- GI50 [14]: > 10 µM (inactive)
- GI50 [15]: > 10 µM (inactive)
- GI50 [16]: > 10 µM (inactive)
- GI50 [17]: > 10 µM (inactive)

Compound: CC1=C(C(=O)Nc2ccccc2C)C(c2ccc(C3C(C(=O)Nc4ccccc4C)=C(C)NC(C)=C3C(=O)Nc3ccccc3C)cc2)C(C(=O)Nc2ccccc2C)=C(C)N1
- GI50 [1]: 2.03 µM (inactive)
- GI50 [2]: 2.8 µM (inactive)
- GI50 [20]: 2.67 µM (inactive)
- GI50 [3]: 4.51 µM (inactive)
- GI50 [4]: 7.1 µM (inactive)
- GI50 [19]: 1.71 µM (inactive)
- GI50 [5]: 11.9 µM (inactive)
- GI50 [6]: 9.4 µM
- GI50 [7]: 4.57 µM (inactive)
- GI50 [8]: 2.19 µM (inactive)
- GI50 [9]: 14.1 µM (inactive)
- GI50 [10]: 2.48 µM (inactive)
- GI50 [18]: 1.89 µM (inactive)
- GI50 [12]: 4.39 µM (inactive)
- GI50 [13]: 4.52 µM (inactive)
- GI50 [14]: 21.1 µM (inactive)
- GI50 [15]: 13.4 µM (inactive)
- GI50 [16]: 2.82 µM (inactive)
- GI50 [17]: 2.03 µM (inactive)

Compound: COc1ccc(-c2oc3ccc(C)cc3c(=O)c2O)cc1
- GI50 [1]: > 100 µM (inactive)
- GI50 [2]: > 100 µM (inactive)
- GI50 [3]: > 100 µM (inactive)
- GI50 [4]: > 100 µM (inactive)
- GI50 [19]: > 100 µM (inactive)
- GI50 [5]: 44.4 µM (inactive)
- GI50 [6]: 24.5 µM
- GI50 [7]: > 100 µM (inactive)
- GI50 [8]: > 100 µM (inactive)
- GI50 [9]: > 100 µM (inactive)
- GI50 [10]: 58.6 µM (inactive)
- GI50 [18]: > 100 µM (inactive)
- GI50 [11]: 35.4 µM (inactive)
- GI50 [12]: > 100 µM (inactive)
- GI50 [13]: 31.9 µM (inactive)
- GI50 [14]: > 100 µM (inactive)
- GI50 [15]: > 100 µM (inactive)
- GI50 [16]: > 100 µM (inactive)
- GI50 [17]: > 100 µM (inactive)

Compound: COc1cc(-c2c3c([nH]c(=O)c2C#N)-c2cc([N+](=O)[O-])ccc2CCC3)cc(OC)c1OC
- GI50 [1]: 37.5 µM (inactive)
- GI50 [2]: 26.9 µM (inactive)
- GI50 [3]: 17.2 µM (inactive)
- GI50 [4]: 26.9 µM (inactive)
- GI50 [19]: 16.2 µM (inactive)
- GI50 [5]: 30.8 µM (inactive)
- GI50 [6]: 26.4 µM
- GI50 [7]: 16.1 µM (inactive)
- GI50 [8]: 22.8 µM (inactive)
- GI50 [9]: 22.7 µM (inactive)
- GI50 [10]: 16 µM (inactive)
- GI50 [18]: 15.6 µM (inactive)
- GI50 [11]: 42.4 µM (inactive)
- GI50 [12]: 20.2 µM (inactive)
- GI50 [13]: 21 µM (inactive)
- GI50 [14]: 19.9 µM (inactive)
- GI50 [15]: 19 µM (inactive)
- GI50 [16]: 35.1 µM (inactive)
- GI50 [17]: 13.3 µM (inactive)

Compound: C/C(=C\CO)CC[C@@H]1[C@@]2(C)CCCC(C)(C)[C@@H]2CC[C@@]1(C)O
- GI50 [1]: 21.3 µM (inactive)
- GI50 [2]: 19.5 µM (inactive)
- GI50 [3]: 16 µM (inactive)
- GI50 [4]: 28.6 µM (inactive)
- GI50 [19]: 17.5 µM (inactive)
- GI50 [5]: 21.3 µM (inactive)
- GI50 [6]: 17.3 µM
- GI50 [7]: 17.6 µM (inactive)
- GI50 [8]: 19.7 µM (inactive)
- GI50 [9]: 18.5 µM (inactive)
- GI50 [10]: 51.8 µM (inactive)
- GI50 [18]: 16.7 µM (inactive)
- GI50 [11]: 17.1 µM (inactive)
- GI50 [12]: 16.4 µM (inactive)
- GI50 [13]: 34.2 µM (inactive)
- GI50 [15]: 23.4 µM (inactive)
- GI50 [16]: 23.4 µM (inactive)
- GI50 [17]: 14.1 µM (inactive)

Compound: O=C1C=C(O)C(=O)c2c(O)ccc(O)c21
- GI50 [1]: 51.9 µM (inactive)
- GI50 [2]: > 100 µM (inactive)
- GI50 [3]: > 100 µM (inactive)
- GI50 [4]: > 100 µM (inactive)
- GI50 [5]: > 100 µM (inactive)
- GI50 [6]: > 100 µM
- GI50 [7]: > 100 µM (inactive)
- GI50 [8]: 88.5 µM (inactive)
- GI50 [9]: > 100 µM (inactive)
- GI50 [10]: > 100 µM (inactive)
- GI50 [18]: > 100 µM (inactive)
- GI50 [11]: > 100 µM (inactive)
- GI50 [12]: > 100 µM (inactive)
- GI50 [13]: > 100 µM (inactive)
- GI50 [14]: > 100 µM (inactive)
- GI50 [15]: > 100 µM (inactive)
- GI50 [16]: > 100 µM (inactive)
- GI50 [17]: > 100 µM (inactive)
